According to PubChem BioAssay (NCI):
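Tested at 5 concentrations; 48 h exposure; 96-well plates; endpoints linearly interpolated, else capped at highest concentration. TGI is the concentration that stops growth completely.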

Assays:
Assay in all cases: NCI tumour cell line growth inhibition, 48 h
K-562 leukemia = test system: K-562 leukemia
COLO 205 colon = test system: COLO 205 colon
HOP-92 NSCLC = test system: HOP-92 NSCLC
SW-620 colon = test system: SW-620 colon
SK-MEL-28 melanoma = test system: SK-MEL-28 melanoma
CAKI-1 renal = test system: CAKI-1 renal
A549 NSCLC = test system: A549 NSCLC
MALME-3M melanoma = test system: MALME-3M melanoma
MOLT-4 leukemia = test system: MOLT-4 leukemia
SN12C renal = test system: SN12C renal
OVCAR-5 ovarian = test system: OVCAR-5 ovarian
HS 578T breast = test system: HS 578T breast
OVCAR-8 ovarian = test system: OVCAR-8 ovarian
KM12 colon = test system: KM12 colon
OVCAR-3 ovarian = test system: OVCAR-3 ovarian
BT-549 breast = test system: BT-549 breast
NCI-H460 lung = test system: NCI-H460 lung
SNB-75 CNS = test system: SNB-75 CNS
HL-60(TB) leukemia = test system: HL-60(TB) leukemia
SF-268 CNS = test system: SF-268 CNS
MCF7 breast = test system: MCF7 breast
SF-539 CNS = test system: SF-539 CNS
RXF 393 renal = test system: RXF 393 renal
HOP-62 NSCLC = test system: HOP-62 NSCLC
T-47D breast = test system: T-47D breast
HCT-15 colon = test system: HCT-15 colon
NCI/ADR-RES ovarian = test system: NCI/ADR-RES ovarian
EKVX NSCLC = test system: EKVX NSCLC
SF-295 CNS = test system: SF-295 CNS
A498 renal = test system: A498 renal
MDA-MB-435 = test system: MDA-MB-435
IGROV1 ovarian = test system: IGROV1 ovarian
M14 melanoma = test system: M14 melanoma
NCI-H226 lung = test system: NCI-H226 lung
OVCAR-4 ovarian = test system: OVCAR-4 ovarian
SK-MEL-2 melanoma = test system: SK-MEL-2 melanoma
HCT-116 colon = test system: HCT-116 colon
DU-145 prostate = test system: DU-145 prostate
U251 CNS = test system: U251 CNS
UO-31 renal = test system: UO-31 renal
SNB-19 CNS = test system: SNB-19 CNS
SK-OV-3 ovarian = test system: SK-OV-3 ovarian
MDA-MB-231 breast = test system: MDA-MB-231 breast
SK-MEL-5 melanoma = test system: SK-MEL-5 melanoma
UACC-62 melanoma = test system: UACC-62 melanoma
LOX IMVI melanoma = test system: LOX IMVI melanoma
NCI-H23 lung = test system: NCI-H23 lung
RPMI-8226 leukemia = test system: RPMI-8226 leukemia
HT29 colon = test system: HT29 colon
CCRF-CEM leukemia = test system: CCRF-CEM leukemia
ACHN renal = test system: ACHN renal
PC-3 prostate = test system: PC-3 prostate
786-0 renal = test system: 786-0 renal
TK-10 renal = test system: TK-10 renal
UACC-257 melanoma = test system: UACC-257 melanoma
HCC-2998 colon = test system: HCC-2998 colon
NCI-H522 lung = test system: NCI-H522 lung

CCCOc1ccc2sc(NC(=O)c3cc([N+](=O)[O-])cc([N+](=O)[O-])c3)nc2c1
TGI (K-562 leukemia): > 100 µM | TGI (COLO 205 colon): > 100 µM | TGI (HOP-92 NSCLC): 49.6 µM | TGI (SW-620 colon): > 100 µM | TGI (SK-MEL-28 melanoma): > 100 µM | TGI (CAKI-1 renal): > 100 µM | TGI (A549 NSCLC): > 100 µM | TGI (MALME-3M melanoma): 79.3 µM | TGI (MOLT-4 leukemia): > 100 µM | TGI (SN12C renal): > 100 µM | TGI (OVCAR-5 ovarian): > 100 µM | TGI (HS 578T breast): 39.4 µM | TGI (OVCAR-8 ovarian): > 100 µM | TGI (KM12 colon): > 100 µM | TGI (OVCAR-3 ovarian): 68.3 µM | TGI (BT-549 breast): > 100 µM | TGI (NCI-H460 lung): > 100 µM | TGI (SNB-75 CNS): 83.1 µM | TGI (HL-60(TB) leukemia): > 100 µM | TGI (SF-268 CNS): > 100 µM | TGI (MCF7 breast): > 100 µM | TGI (SF-539 CNS): > 100 µM | TGI (RXF 393 renal): > 100 µM | TGI (HOP-62 NSCLC): > 100 µM | TGI (T-47D breast): > 100 µM | TGI (HCT-15 colon): > 100 µM | TGI (NCI/ADR-RES ovarian): 61.5 µM | TGI (EKVX NSCLC): > 100 µM | TGI (SF-295 CNS): > 100 µM | TGI (A498 renal): 76.9 µM | TGI (MDA-MB-435): > 100 µM | TGI (IGROV1 ovarian): 35.7 µM | TGI (M14 melanoma): > 100 µM | TGI (NCI-H226 lung): > 100 µM | TGI (OVCAR-4 ovarian): 58.8 µM | TGI (SK-MEL-2 melanoma): > 100 µM | TGI (HCT-116 colon): 89.7 µM | TGI (DU-145 prostate): > 100 µM | TGI (U251 CNS): > 100 µM | TGI (UO-31 renal): 57.7 µM | TGI (SNB-19 CNS): > 100 µM | TGI (SK-OV-3 ovarian): > 100 µM | TGI (MDA-MB-231 breast): > 100 µM | TGI (SK-MEL-5 melanoma): 48.8 µM | TGI (UACC-62 melanoma): > 100 µM | TGI (LOX IMVI melanoma): 68.3 µM | TGI (NCI-H23 lung): 82.3 µM | TGI (RPMI-8226 leukemia): > 100 µM | TGI (HT29 colon): > 100 µM | TGI (CCRF-CEM leukemia): > 100 µM | TGI (ACHN renal): > 100 µM | TGI (PC-3 prostate): > 100 µM | TGI (786-0 renal): > 100 µM | TGI (TK-10 renal): > 100 µM

COC(=O)CCCC(=O)C1=Nc2ccccc2CN(c2ccc(Cl)cc2)N1
TGI (K-562 leukemia): > 100 µM | TGI (COLO 205 colon): > 100 µM | TGI (HOP-92 NSCLC): > 100 µM | TGI (SW-620 colon): > 100 µM | TGI (SK-MEL-28 melanoma): > 100 µM | TGI (CAKI-1 renal): > 100 µM | TGI (A549 NSCLC): > 100 µM | TGI (MOLT-4 leukemia): > 100 µM | TGI (SN12C renal): > 100 µM | TGI (OVCAR-5 ovarian): > 100 µM | TGI (HS 578T breast): > 100 µM | TGI (OVCAR-8 ovarian): > 100 µM | TGI (KM12 colon): > 100 µM | TGI (OVCAR-3 ovarian): > 100 µM | TGI (BT-549 breast): > 100 µM | TGI (SNB-75 CNS): > 100 µM | TGI (SF-268 CNS): > 100 µM | TGI (MCF7 breast): > 100 µM | TGI (SF-539 CNS): > 100 µM | TGI (RXF 393 renal): > 100 µM | TGI (HOP-62 NSCLC): > 100 µM | TGI (T-47D breast): 49.5 µM | TGI (HCT-15 colon): > 100 µM | TGI (NCI/ADR-RES ovarian): > 100 µM | TGI (EKVX NSCLC): > 100 µM | TGI (UACC-257 melanoma): > 100 µM | TGI (SF-295 CNS): > 100 µM | TGI (A498 renal): > 100 µM | TGI (MDA-MB-435): > 100 µM | TGI (IGROV1 ovarian): > 100 µM | TGI (M14 melanoma): > 100 µM | TGI (NCI-H226 lung): > 100 µM | TGI (OVCAR-4 ovarian): 87.7 µM | TGI (SK-MEL-2 melanoma): > 100 µM | TGI (HCT-116 colon): > 100 µM | TGI (HCC-2998 colon): > 100 µM | TGI (DU-145 prostate): > 100 µM | TGI (U251 CNS): > 100 µM | TGI (UO-31 renal): > 100 µM | TGI (SNB-19 CNS): > 100 µM | TGI (SK-OV-3 ovarian): > 100 µM | TGI (MDA-MB-231 breast): > 100 µM | TGI (NCI-H522 lung): > 100 µM | TGI (SK-MEL-5 melanoma): > 100 µM | TGI (UACC-62 melanoma): > 100 µM | TGI (LOX IMVI melanoma): > 100 µM | TGI (NCI-H23 lung): > 100 µM | TGI (RPMI-8226 leukemia): > 100 µM | TGI (HT29 colon): > 100 µM | TGI (CCRF-CEM leukemia): > 100 µM | TGI (ACHN renal): > 100 µM | TGI (PC-3 prostate): > 100 µM | TGI (786-0 renal): > 100 µM | TGI (TK-10 renal): > 100 µM
